According to patent US20240335541A1, “NANOMATERIALS COMPRISING DIAMINES” (Beam Therapeutics Inc., priority 2021, published 2024):

Legend:
Test in all cases: Barcoded pooled LNP biodistribution screen, fold above input (FAI)
Assay type in all cases: in vivo
Liver = details: Table 4 screening experiment; pooled LNP IV tail vein, mice, 4 hours post-dose
Description: (§1) Male and female mice aged approximately 8-12 weeks were used for studies described by the present Example. Each mouse was temporarily restrained and pooled LNP was administered IV via tail vein injection in up to five animals per experiment. Age-matched mice was also used to administer vehicle (1×TBS) via tail vein injection in up to three animals per experiment. Additional routes of administration can also be conducted including intracerebral ventricular (ICV), intracisterna manga (ICM), intrathecal (IT), intramuscular (IM), nebulization, intranasal (IN), subcutaneous (SC), intraarticular, and intradermal (ID). At 4 hours post-dose, tissues including liver, spleen, bone marrow, testes, gastrocnemius, quadricep, lung, heart, kidney, and pancreas may be collected for analysis.
(§2) Liver, kidney, lung, and muscle (e.g. skeletal and cardiac) tissues may be mechanically, and then enzymatically digested using a mixture of proteinases, then passed through a 70 μm filter to generate single cell suspensions. Spleen tissues were mechanically digested to generate single cell suspensions. Tissues were treated with ACK buffer to lyse red blood cells, and then stained with fluorescently-labeled antibodies for flow cytometry and fluorescence-activated cell sorting (FACS). Commercially available antibodies were used in the present example. Using a BD FACSMelody (Becton Dickinson), samples were acquired via flow cytometry to generate gates prior to sorting. In general, the gating structure was size→singlet cells→live cells→cells of interest. T cells were defined as CD45+CD3+, monocytes are defined as CD45+CD11b+, and B cells are defined as CD45+CD19+. Endothelial cells were defined as CD31+, monocytes and Kupffer cells as CD45+CD11b+ and hepatocytes and myocytes were defined as CD31−/CD45− in the liver and muscle, respectively. Tissues from vehicle-dosed mice were used to set the gates for sorting.
(§3) RNA from tissues were extracted using the Reliaprep RNA extraction kit, and libraries were prepared using the RNAseq kit, and sequenced on either a MiSeq or NextSeq500.
(§4) To screen for preferential LNP delivery to a target tissues, the relative abundance of each barcode in one or more target tissues was measured and compared to the relative abundance of each barcode to its corresponding relative input abundance to determine fold above input (FAI) for each barcode. If the FAI of a barcode in a target tissue is above a threshold or above the FAI of a different LNP in the same tissue, the LNP can be identified as preferentially delivering to the target tissue.
(§5) The FAI is the normalized relative abundance of a barcode in a selected sample as compared to its frequency in the input. The FAI of a barcode indicates how a LNP's abundance changes relative to the rest of the LNP pool. The FAI value of the barcode was calculated by normalizing the relative abundance in the barcode sequence counts in the isolated samples to its relative abundance in the administration input. […] The FAI then indicates the performance of an LNP relative to the input LNP composition.

Lung = details: pooled LNP IV tail vein, mice, 4 hours post-dose
Description: as §1, §2, §3, §4, §5

Spleen = details: pooled LNP IV tail vein, mice, 4 hours post-dose
Description: as §1, §2, §3, §4, §5

CCCCC/C=C\C/C=C\CCCCCCCCC(CCCCCCCC/C=C\C/C=C\CCCCC)OC(=O)CCCN(C)C [MC3, (6Z,9Z,28Z,31Z)-heptatriaconta-6,9,28,31-tetraen-19-yl 4-(dimethylamino) butanoate]
FAI (Liver) (Liver): 0.86
FAI (Lung) (Lung; Table 4 screening experiment): 1.13
FAI (Lung) (Lung; Table 5 screening experiment): 0.50
FAI (Spleen) (Spleen; Table 4 screening experiment): 1.94
FAI (Spleen) (Spleen; Table 5 screening experiment): 0.39
